Experimental findings from patent US9255100B2 (BAYER INTELLECTUAL PROPERTY GMBH, priority 2010, dated 2016) are described below.

This assay deals with T1, N-terminally GST-tagged human full length recombinant Mps-1 kinase (Homo sapiens, UniProt P33981).
T1 construct: N-terminally GST-tagged human full length recombinant Mps-1 kinase; purchased Invitrogen, Karslruhe, Germany PV4071
T1 sequence (P33981 1-857): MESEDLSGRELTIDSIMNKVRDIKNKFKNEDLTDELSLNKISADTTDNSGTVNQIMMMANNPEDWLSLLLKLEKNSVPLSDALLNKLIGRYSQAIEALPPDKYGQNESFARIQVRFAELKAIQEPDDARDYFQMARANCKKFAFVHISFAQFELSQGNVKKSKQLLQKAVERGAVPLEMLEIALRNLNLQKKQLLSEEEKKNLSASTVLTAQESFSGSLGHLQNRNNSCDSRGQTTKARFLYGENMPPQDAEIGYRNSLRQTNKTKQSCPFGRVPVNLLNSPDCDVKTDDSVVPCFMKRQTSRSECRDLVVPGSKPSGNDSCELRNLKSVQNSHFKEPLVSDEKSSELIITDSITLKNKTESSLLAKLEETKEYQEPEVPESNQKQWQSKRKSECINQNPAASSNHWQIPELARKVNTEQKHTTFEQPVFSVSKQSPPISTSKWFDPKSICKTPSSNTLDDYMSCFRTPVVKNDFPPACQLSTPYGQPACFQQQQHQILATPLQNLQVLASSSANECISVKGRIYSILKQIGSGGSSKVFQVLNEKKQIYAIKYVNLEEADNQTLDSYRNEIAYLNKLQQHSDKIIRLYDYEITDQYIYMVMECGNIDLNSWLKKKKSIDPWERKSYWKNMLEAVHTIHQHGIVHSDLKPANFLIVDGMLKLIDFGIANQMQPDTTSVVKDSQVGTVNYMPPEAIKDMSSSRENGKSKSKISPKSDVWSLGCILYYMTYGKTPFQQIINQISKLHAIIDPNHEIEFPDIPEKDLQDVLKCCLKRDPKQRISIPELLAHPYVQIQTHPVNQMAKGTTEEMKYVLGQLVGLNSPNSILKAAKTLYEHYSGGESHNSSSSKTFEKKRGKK
Description: Mps-1 kinase assay (TR-FRET). It is filed as biochemical. The following applies: Mps1 IC50 [nM], 10 μM ATP, 1 μM peptide substrate, 60 min at 22° C. An outline of the steps:
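TR-FRET signal between a Europium anti-phospho-Ser/Thr antibody and streptavidin-XLent reported phosphorylation of a biotinylated peptide by GST-tagged full-length Mps-1. Enzyme was near 1 nM final, chosen per lot for linearity.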
In general terms: TR-FRET usually uses a lanthanide donor and a delayed reading to cut background.
Take `COc1ccc(Oc2cc(NCCC(F)(F)F)c3ncc(-c4ccc(C(=O)NC5CC5)c(C)c4)n3n2)cc1` [Example 471, N-cyclopropyl-4-{6-(4-methoxyphenoxy)-8-[(3,3,3-trifluoropropyl)amino]imidazo[1,2-b]pyridazin-3-yl}-2-methylbenzamide]: the IC50 is 0.2 nM.

With `Cn1nccc1-c1cc(NC[C@H](O)[C@H]2COC(C)(C)O2)c2ncc(-c3ccc(C(=O)NC4CC4)cc3)n2n1` [Example 192, N-cyclopropyl-4-[8-({(2S)-2-[(4R)-2,2-dimethyl-1,3-dioxolan-4-yl]-2-hydroxyethyl}amino)-6-(1-methyl-1H-pyrazol-5-yl)imidazo[1,2-b]pyridazin-3-yl]benzamide], the half-inhibitory concentration (IC50) came to 21.5 nM.

Take `Cc1ccc(F)cc1Sc1cc(NCCC(F)(F)F)c2ncc(-c3ccc(C(=O)NC4CC4)c(C)c3)n2n1` [Example 269, N-cyclopropyl-4-{6-[(5-fluoro-2-methylphenyl)sulfanyl]-8-[(3,3,3-trifluoropropyl)amino]imidazo[1,2-b]pyridazin-3-yl}-2-methylbenzamide]: the IC50 came out at 0.3 nM. Then `Cc1cc(-c2cnc3c(NCCN4CCCCC4)cc(Oc4cccc(F)c4)nn23)ccc1C(=O)NC1CC1` [Example 499, N-cyclopropyl-4-[6-(3-fluoro-phenoxy)-8-{[2-(piperidin-1-yl)ethyl]amino}imidazo[1,2-b]pyridazin-3-yl]-2-methyl-benzamide], with 0.2 nM; and `Cc1cc(-c2cnc3c(NCCCN4CCCC4)cc(Oc4cccc(F)c4)nn23)ccc1C(=O)NC1CC1` [Example 507, N-cyclopropyl-4-[6-(3-fluoro-phenoxy)-8-{[3-(pyrrolidin-1-yl)propyl]amino}imidazo[1,2-b]pyridazin-3-yl]-2-methyl-benzamide], with 0.2 nM; and `Cc1cc(-c2cnc3c(NCCC(F)(F)F)cc(Oc4cccc(F)c4)nn23)ccc1C(=O)NCC(F)(F)C(F)(F)F` [Example 555, 4-{6-(3-fluorophenoxy)-8-[(3,3,3-trifluoropropyl)amino]imidazo[1,2-b]pyridazin-3-yl}-2-methyl-N-(2,2,3,3,3-pentafluoropropyl)benzamide], with 9.4 nM. Under `Cc1cc(-c2cnc3c(NCc4nnn[nH]4)cc(Oc4cccc(F)c4)nn23)ccc1C(=O)NC1CC1` [Example 496, N-cyclopropyl-4-{6-(3-fluoro-phenoxy)-8-[(1H-tetrazol-5-ylmethyl)amino]imidazo[1,2-b]pyridazin-3-yl}-2-methylbenzamide] stands 8.9 nM; under `CNC(=O)c1ccc(-c2cnc3c(NCCC(F)(F)F)cc(Oc4cccc(F)c4)nn23)cc1C` [Example 551, 4-{6-(3-fluorophenoxy)-8-[(3,3,3-trifluoropropyl)amino]imidazo[1,2-b]pyridazin-3-yl}-N,2-dimethylbenzamide], 0.2 nM; under `COc1cc(F)ccc1Nc1cc(NCC(C)(C)O)c2ncc(-c3ccc(C(=O)NC4CC4)c(C)c3)n2n1` [Example 432, N-cyclopropyl-4-{6-[(4-fluoro-2-methoxyphenyl)amino]-8-[(2-hydroxy-2-methylpropyl)amino]imidazo[1,2-b]pyridazin-3-yl}-2-methylbenzamide], 4.6 nM.

For the compound `Cc1cc(F)cc(Oc2cc(NCC3CCSCC3)c3ncc(-c4ccc(C(=O)NC5CC5)c(C)c4)n3n2)c1` [Example 282, N-cyclopropyl-4-{6-(3-fluoro-5-methylphenoxy)-8-[(tetrahydro-2H-thiopyran-4-ylmethyl)amino]imidazo[1,2-b]pyridazin-3-yl}-2-methylbenzamide], the half-inhibitory concentration (IC50) came to 0.4 nM.

For the compound `Cc1cc(F)cc(Sc2cc(NCC3CCSCC3)c3ncc(-c4ccc(C(=O)NC5CC5)c(C)c4)n3n2)c1` [Example 286, N-cyclopropyl-4-{6-[(3-fluoro-5-methylphenyl)sulfanyl]-8-[(tetrahydro-2H-thiopyran-4-ylmethyl)amino]imidazo[1,2-b]pyridazin-3-yl}-2-methylbenzamide], the half-inhibitory concentration (IC50) is 0.4 nM.

One may read the IC50 as the concentration that inhibits the measured activity by half.
